Results: US10478421B1, “Sortilin binding compounds, formulations, and uses thereof” (University of Florida, priority 2016, dated 2019)

What was measured:
[1] = target: T1, hsortilin (Homo sapiens, UniProt Q99523); experiment: SPR binding of 541 and 984 to hsortilin (Example 4)
T1 sequence (Q99523 78-831): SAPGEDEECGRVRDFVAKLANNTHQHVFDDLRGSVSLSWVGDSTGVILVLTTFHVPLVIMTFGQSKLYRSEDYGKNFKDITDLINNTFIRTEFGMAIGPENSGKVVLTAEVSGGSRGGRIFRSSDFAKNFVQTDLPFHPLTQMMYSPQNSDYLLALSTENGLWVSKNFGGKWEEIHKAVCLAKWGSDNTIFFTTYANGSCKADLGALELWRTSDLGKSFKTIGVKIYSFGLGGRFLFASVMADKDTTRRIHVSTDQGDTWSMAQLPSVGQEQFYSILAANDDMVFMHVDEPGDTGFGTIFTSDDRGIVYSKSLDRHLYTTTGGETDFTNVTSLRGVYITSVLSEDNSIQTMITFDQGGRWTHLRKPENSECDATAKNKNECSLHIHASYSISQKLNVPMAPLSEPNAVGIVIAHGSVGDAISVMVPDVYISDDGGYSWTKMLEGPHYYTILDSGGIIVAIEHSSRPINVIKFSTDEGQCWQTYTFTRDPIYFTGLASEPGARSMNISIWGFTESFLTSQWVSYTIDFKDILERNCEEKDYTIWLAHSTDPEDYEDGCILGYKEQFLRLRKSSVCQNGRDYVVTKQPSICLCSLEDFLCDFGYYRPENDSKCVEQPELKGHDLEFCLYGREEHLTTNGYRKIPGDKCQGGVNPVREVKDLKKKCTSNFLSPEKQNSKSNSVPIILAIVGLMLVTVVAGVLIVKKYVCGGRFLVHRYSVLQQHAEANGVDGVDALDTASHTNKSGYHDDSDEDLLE
Protocol: Due to inherent fluorescence of 541 small molecule, thermophoresis was performed in two different buffer conditions (PBS n=3 and MST n=2) and at two sets of concentration ranges. […] SPR indicates a high and low affinity binding site of cpd984 to human sortilin of hsortilin with Kd of about 200 μM and about 20 nM.

[2] = system: McArdle rat hepatocytes; experiment: VLDL-apo E secretion by McArdle rat hepatocytes (slot blotting); assay type: cell-based; settings: 0.1-25 μM, 14-18 h
Protocol: McArdle rat hepatocytes were incubated with five media concentrations 0 (no cpd), 1 (0.1 μM), 2 (1 μM), 3 (10 μM) and 4 (25 μM) of cpd984 (FIG. 7A), cpd541 (FIG. 7B), or with a combination of both compounds (FIG. 7C) at indicated concentrations. Hepatocytes were incubated overnight (14-18 h) and media were collected and VLDL-B100 and VLDL-apo E were detected by slot blotting as described above. An anti-rat apoE antibody was used for measurement of VLDL-apo E secretion. Results are the average of triplicate analysis in one study.

[3] = target: T2, hsortilin (Homo sapiens, UniProt Q99523); experiment: Surface plasmon resonance on hsortilin immobilized on CM7 chips (Example 2); assay type: binding
T2 construct: Human sortilin (hsortilin) (Ser78-Asn755) with C-terminal 6-His tag; purchased R&D Systems, Inc. (Minneapolis, Minn.)
T2 sequence (Q99523 78-755): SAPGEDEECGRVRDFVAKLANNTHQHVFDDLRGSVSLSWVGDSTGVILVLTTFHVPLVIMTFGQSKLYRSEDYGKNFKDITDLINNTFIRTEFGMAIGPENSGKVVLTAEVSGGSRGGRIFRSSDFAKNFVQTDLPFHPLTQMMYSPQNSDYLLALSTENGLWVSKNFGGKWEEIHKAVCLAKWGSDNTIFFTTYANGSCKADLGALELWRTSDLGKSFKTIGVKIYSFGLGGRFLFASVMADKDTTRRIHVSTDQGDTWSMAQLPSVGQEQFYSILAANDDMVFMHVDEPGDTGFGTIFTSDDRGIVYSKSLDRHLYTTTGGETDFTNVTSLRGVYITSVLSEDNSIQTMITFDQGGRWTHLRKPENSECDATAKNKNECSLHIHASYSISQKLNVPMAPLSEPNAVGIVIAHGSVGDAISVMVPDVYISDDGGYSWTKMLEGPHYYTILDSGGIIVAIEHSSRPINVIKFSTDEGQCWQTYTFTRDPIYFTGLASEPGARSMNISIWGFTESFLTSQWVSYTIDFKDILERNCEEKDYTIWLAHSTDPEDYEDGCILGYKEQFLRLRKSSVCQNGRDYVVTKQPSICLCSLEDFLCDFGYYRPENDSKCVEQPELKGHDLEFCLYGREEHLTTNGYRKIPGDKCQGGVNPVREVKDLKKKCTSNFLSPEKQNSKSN
Protocol: Surface plasmon resonance (SPR) measurements were performed on a Biacore T200 instrument equipped with two separate CM7 sensor chips, one with about 20,000 response units (RU) and another with about 27,000 RU of hsortilin covalently immobilized. […] For all other SPR injections, regeneration consisted of injections of running buffer alone. GE BIAcore T200 evaluation software version 3.0 (BIAevaluate) was used to analyze and export results. […] PIP3 containing nanodiscs were flowed at 2:1 dilutions to obtain kinetic data fitted using about 27,000 RU CM7 surface. Kinetic fit generated with BIAevaluate and local Rmax using Langmuir 1:1 binding model exported from BIAevaluate to Microsoft Excel 2016 with fit indicated by the black line.

[4] = system: McA cells; experiment: LDH release into medium (viability of McA cells); assay type: cell-based, rat; settings: incubation with compound (10 μM cpd984, 18 h)
[5] = system: PCSK9; experiment: Cellular PCSK9 by immunoblot in McA cells; assay type: cell-based, rat; settings: 10 μM, 18 h, 1% BSA/DMEM
Protocol: McA cells were incubated in 1% BSA/DMEM with DMSO, 541 (10 μM) or 984 (10 μM) for 18 h. Cellular proteins were extracted and analyzed by IB for LDLR (LS-C146979, 1:2000) (FIG. 5A) or PCSK9 (Ab125251, 1:2000) (FIG. 5B) using HRP-linked secondary antibody and ECL detection. Loading controls included β-ACTIN (Rockland ph600-401-886) and GAPDH (cb1001mAb (6C5). Band intensities were measured using ChemiDocXRS+ system and evaluated using ImageLab 5.1 software (BioRad). Results are average of triplicates ±S.D. PCSK9 is a known ligand for sortilin where sortilin acts as a chaperone for PCSK9 secretion.

Row | Compound | Kd ([1]; two trials) | effect on VLDL-apoE secretion [2] | effect on NT binding to hsortilin by SPR [3] | LDH release / toxicity [4] | effect on cellular PCSK9 [5] | Kd ([1]; high affinity binding site) | Kd ([1]; low affinity binding site) | increase of binding of C-term NT (SITE 1) to hsortilin when incubated with 984 [3] | LDH release / toxicity ([4]; listed as 984)
1 | CC(NC(=O)c1ccccc1NCC(=O)O)c1ccccc1 (stereo not shown) [cpd541] | 7.5 µM | decreases | competes for NT binding | non-toxic | no biological difference | – | – | – | –
2 | CN1CCC[C@H]1C(=O)Nc1cccc(NC(=O)CCc2ccccc2)c1 [cpd984, (2S)-1-methyl-N-{3-[(3-phenylpropanoyl)-amino]phenyl} pyrrolidine-2-carboxamide] | – | increases | enhances NT binding | no significant release of LDH | accumulation of cellular PCSK9 | ~0.02 µM | ~200 µM | 100 fold | non-toxic
